The METLIN SMRT retention time set (Domingo-Almenara et al. 2019)

Experiment: gradient 5% acetonitrile 3 min, to 50% in 2 min, to 85% in 15 min, held 3 min, 100 µL/min
Conditions: column: Zorbax Extend-C18 2.1 x 50 mm; eluents: water / acetonitrile, 0.1% formic acid
How it was run: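 In both positive and negative ionization mode, a quadrupole time-of-flight mass spectrometer coupled to HPLC analyzed pure standards run in mixtures of ~100 molecules. The Zorbax Extend-C18 column (2.1 × 50 mm, 1.8 μm) was operated at 100 μL/min with water and acetonitrile, each containing 0.1% formic acid. The dead volume was 40 μL and the dwell volume 900 μL. Retention time came from adduct peaks that were computationally picked and individually inspected by hand.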

## CCc1ccccc1NC(=O)Cn1c(N)nc(COC)cc1=O
  RP-LC retention time: 598 s

## CCN1CCn2cc(S(=O)(=O)Nc3ccccc3F)cc2C1=O
  RP-LC retention time: 1070 s

## CCN1C(=O)COc2cc(-c3noc(C(=O)NCCc4ccccc4)n3)ccc21
  RP-LC retention time: 953 s

## COc1ccc(-c2nnc3ccc(SCC(=O)Nc4cc(C)on4)nn23)cc1OC
  RP-LC retention time: 606 s

## COCCOC1CCC12CCN(C(=O)c1ocnc1C)CC2 (centres undefined)
  RP-LC retention time: 686 s

## Cc1[nH]c(C(=O)N2CCC(CC(=O)NCc3ccc(F)cc3)CC2)c(C)c1C(=O)OC(C)C
  RP-LC retention time: 818 s

## CCn1c(C(=O)NCCC(C)C)cc2c(=O)oc3ccccc3c21
  RP-LC retention time: 751 s

## CCc1ccc(C2=C(C)C(N3CCCN(C(=O)C4CCOC4)CC3)=NS2(=O)=O)cc1 (centres undefined)
  RP-LC retention time: 749 s

## Cc1ccc2nc(CN3CCN(C(=O)NCc4ccc(F)cc4)CC3)oc2c1
  RP-LC retention time: 690 s

## CS(=O)(=O)N1CCC(CNC(=O)CSCc2ccccc2)CC1
  RP-LC retention time: 691 s

## O=C(Nc1ccc(C(F)(F)F)cc1)c1cnc(-c2ccc(F)cc2)nc1-c1ccncc1
  RP-LC retention time: 1070 s

## O=c1nc(Oc2ccccc2)nc2ncccn12
  RP-LC retention time: 688 s

## CCCNC(=O)c1cn(-c2cc(-c3nc(C(C)(C)C)no3)ccn2)cn1
  RP-LC retention time: 934 s

## COC(=O)c1ccc2c(=O)n(-c3cc(OC)cc(OC)c3)c(N3CCOCC3)nc2c1
  RP-LC retention time: 903 s

## Cc1cc2nc(C(F)(F)F)c(=O)n(C(C)C(=O)NCCN3CCOCC3)c2cc1C (centres undefined)
  RP-LC retention time: 683 s

## Cc1ccc(S(=O)(=O)N2CCC3(CC2)NCCN=C3NCc2cccc(F)c2)cc1
  RP-LC retention time: 718 s

## Cc1cccc(-c2nnc(Cc3nc(C(C)(C)C)no3)o2)c1
  RP-LC retention time: 1000 s

## COCC(C)NC(=O)c1cc2c(s1)N(CC(C)C)CCCC2 (centres undefined)
  RP-LC retention time: 1080 s

## O=C(c1csc(S(=O)(=O)N2CCC(C(=O)N3CCc4ccccc4C3)CC2)c1)N1CCCC1
  RP-LC retention time: 817 s

## Cc1ccc2c(=O)c(C(=O)N3CCCC3)cn(CC(=O)NCc3ccc4c(c3)OCO4)c2n1
  RP-LC retention time: 625 s

## CCC1CN(C(=O)Nc2ccccc2)c2ccccc2O1 (centres undefined)
  RP-LC retention time: 1020 s

## COc1cc(Cl)c(NS(=O)(=O)c2c(C)sc(C)c2-c2n[nH]c(C)c2C)c(OC)c1
  RP-LC retention time: 980 s

## CCOC(=O)c1sc(NC(=O)CCCC(=O)O)nc1-c1ccccc1
  RP-LC retention time: 770 s

## COc1ccc(OCC2CN(C(=O)Cc3ccc(OC)c(OC)c3OC)CCO2)cc1 (centres undefined)
  RP-LC retention time: 794 s

## Cc1cc2nn(CC(=O)Nc3ccccc3)c(=O)n2c(N2CCCC2)n1
  RP-LC retention time: 703 s

## Cn1cccc1C(=O)N1CCCCC1c1nncn1Cc1ccccc1 (centres undefined)
  RP-LC retention time: 745 s

## Cc1ccc(-c2cc(N3CCOCC3)c3cc(NC(=O)NC4CCCCC4)ccc3n2)cc1
  RP-LC retention time: 787 s

## CCc1nn2c(CNS(=O)(=O)c3cc(C)cc(C)c3)c(-c3ccccc3)nc2s1
  RP-LC retention time: 941 s

## COc1ccc(N2C=C(C(=O)N3CCOCC3)S(=O)(=O)c3ccc(Cl)cc32)cc1Cl
  RP-LC retention time: 886 s

## COc1ccc(N2CCN(C(=O)c3cc4c(-c5cccs5)nn(-c5ccccc5)c4n3C)CC2)cc1
  RP-LC retention time: 1120 s

## CC1=C(c2ccc(C(C)C)cc2)S(=O)(=O)N=C1N1CCC(NC(=O)c2ccoc2)CC1
  RP-LC retention time: 769 s

## COc1ccc(-c2nnc3ccc(SCC(=O)Nc4nc(C)cs4)nn23)cc1OC
  RP-LC retention time: 606 s

## CCn1cnc(S(=O)(=O)N2CCC(C(=O)Nc3ccccc3)CC2)c1
  RP-LC retention time: 701 s

## O=C(Cc1ccc(F)cc1)N1CCN(Cc2nc(C3CC3)cs2)CC1
  RP-LC retention time: 610 s

## Cn1cnc(S(=O)(=O)N2CCC(c3noc(-c4ccccc4)n3)C2)c1 (centres undefined)
  RP-LC retention time: 748 s

## Cc1ccc(CNC(=O)C2CCN(c3ccc(SCc4ccccc4)nn3)CC2)cc1
  RP-LC retention time: 821 s

## Cc1ccc(Cl)cc1NC(=O)N1CCC(n2cnc3cccnc32)CC1
  RP-LC retention time: 682 s

## CC1Oc2ccc(-c3csc(NC(=O)COc4ccc(Cl)cc4)n3)cc2NC1=O (centres undefined)
  RP-LC retention time: 966 s

## O=C(NCc1ccccc1Cl)c1coc(NC(=O)c2cccs2)n1
  RP-LC retention time: 719 s

## CCc1ccc(-c2noc(Cn3c(=O)n(Cc4ccc(OC)cc4)c(=O)c4sccc43)n2)cc1
  RP-LC retention time: 1190 s

## COc1cccc(CNC(=O)Cn2c(N3CCCC3)nc(C)cc2=O)c1
  RP-LC retention time: 770 s

## Cc1ccc(C)c(-c2nc3ccccc3c(C(=O)N3CCN(c4ncccn4)CC3)c2C)c1
  RP-LC retention time: 903 s

## Cc1cc(N2CCC(NC(=O)Nc3ccc(Cl)cc3)C2=O)ccc1F (centres undefined)
  RP-LC retention time: 920 s

## Cc1ccccc1CNC(=O)C1=C2CCCN2c2ccc(F)cc2S1(=O)=O
  RP-LC retention time: 918 s

## CCOc1ccccc1-c1nc(-c2cn(Cc3cccc(F)c3)nn2)no1
  RP-LC retention time: 1010 s

## CC[C@H](C)NC(=O)Cc1nnc(-c2ccccc2)o1
  RP-LC retention time: 705 s

## CC(C)c1cc(C(=O)Nc2cccc(Cl)c2)nc2ccnn12
  RP-LC retention time: 1230 s

## COc1cccc(-c2csc(Cc3nc(-c4cccc(C)c4)no3)n2)c1
  RP-LC retention time: 1250 s

## COc1c(C(=O)Nc2ccc3c(c2)OCO3)sc2cc(Cl)ccc12
  RP-LC retention time: 1180 s

## CCCNc1nc(-c2cccc(Br)c2)cs1
  RP-LC retention time: 1030 s

## c1cc(N2CCSCC2)ncc1-c1noc(CN2CCN(C3CCCCC3)CC2)n1
  RP-LC retention time: 655 s

## CCC(=O)Nc1c(C(=O)NC)oc2ccccc12
  RP-LC retention time: 712 s

## Cc1ccn2c(NC(=O)CC(C)(C)C)c(-c3ccccc3)nc2c1
  RP-LC retention time: 666 s

## O=C(c1ccc(N2CCOCC2)nn1)N1CCN(c2ncccn2)CC1
  RP-LC retention time: 586 s

## Cn1cc(-c2ccncc2)cc1C(=O)NCc1ccc(F)c(Cl)c1
  RP-LC retention time: 664 s

## CCc1cc(C2CCCN2C(=O)Nc2ccc(OC)c(OC)c2)on1 (centres undefined)
  RP-LC retention time: 724 s

## C=CCN1CCN(C(=O)C2=NN(c3ccc(Cl)cc3)c3ncccc3S2(=O)=O)CC1
  RP-LC retention time: 660 s

## CC(=O)c1cccc(NC(=O)c2cccc3ccccc23)c1
  RP-LC retention time: 840 s

## C=CCNC(=O)Cc1c(C)n(CC=C)c2nc(-c3ccccc3)nn2c1=O
  RP-LC retention time: 740 s

## CCCS(=O)(=O)NCCNc1cc(-n2nc(C)cc2C)ncn1
  RP-LC retention time: 679 s

## COCCCNc1ncc(C(=O)O)c(-c2ccccc2)n1
  RP-LC retention time: 804 s

## COc1ccc(N2CC(c3noc(-c4cc(OC)c(OC)c(OC)c4)n3)CC2=O)cc1OC (centres undefined)
  RP-LC retention time: 813 s

## COc1ccc(-c2csc(Nc3ccc(S(=O)(=O)Nc4nc(C)cc(C)n4)cc3)n2)cc1C
  RP-LC retention time: 966 s

## CCN(CC)C(=O)c1ccc2nc(-c3ccc(Cl)cc3)cn2c1
  RP-LC retention time: 681 s

## COc1ccc(-c2noc(-c3cccnc3N3CCN(c4ccccc4F)CC3)n2)cc1
  RP-LC retention time: 1370 s

## CCNC(=O)C1CCCN(c2nc3ncn(CC(=O)Nc4ccccc4OCC)c(=O)c3s2)C1 (centres undefined)
  RP-LC retention time: 700 s

## CC1(C)CC(=O)c2cn(-c3ccc(F)cc3)c(=O)c(C(=O)NC3CCCC3)c2C1
  RP-LC retention time: 957 s

## O=C(CCOc1ccc(F)cc1)N1CCN(Cc2ccccc2)CC1
  RP-LC retention time: 575 s

## CCOC(=O)Oc1ccc2c(=O)c(Oc3cccc(OC)c3)coc2c1
  RP-LC retention time: 928 s

## COC(=O)c1ccc2c(=O)n(-c3ccc4c(c3)OCO4)c(N3CCCCC3)nc2c1
  RP-LC retention time: 1080 s

## COc1ccc(-c2cc3n(n2)CCCN(S(=O)(=O)c2cccc4cccnc24)C3)cc1
  RP-LC retention time: 907 s

## Cc1ccc(C)c(CN2CCC(CNC(=O)c3c(C)oc4c3C3=NCCN3C=N4)CC2)c1
  RP-LC retention time: 561 s

## N#Cc1ccccc1Cn1cnc2nc3c(cc2c1=O)CCCC3
  RP-LC retention time: 733 s

## COc1cc(NC(=O)N2CCCC(Cn3cnc4cccnc43)C2)cc(OC)c1 (centres undefined)
  RP-LC retention time: 682 s

## COc1ccc(OC)c(NC(=O)NC2CCN(c3nc4ccccc4n(C)c3=O)CC2)c1
  RP-LC retention time: 886 s

## COc1ccccc1CNC(=O)Cn1ccc2ccc(N3CCOCC3)nc21
  RP-LC retention time: 858 s

## Cc1noc(C)c1S(=O)(=O)NCCc1noc(-c2ccccc2)n1
  RP-LC retention time: 848 s

## CCOC(=O)c1cnn2c(C(F)(F)F)cc(-c3ccc(F)cc3)nc12
  RP-LC retention time: 1110 s

## COc1cc(C2Oc3ccc(C4Oc5cc(O)cc(O)c5C(=O)C4O)cc3OC2CO)ccc1O (centres undefined)
  RP-LC retention time: 685 s

## Cc1noc(-c2cc(=O)n(CC(=O)Nc3cccc(C#N)c3)c3ccccc23)n1
  RP-LC retention time: 831 s

## Cc1c(C(=O)C(=O)NCc2ccc3c(c2)OCO3)c2ccccc2n1C
  RP-LC retention time: 820 s

## COc1ccc(-c2noc(C3CCCN3C(=O)c3ccc(C#N)cc3)n2)cc1OC (centres undefined)
  RP-LC retention time: 783 s

## Cc1ccccc1NC(=O)CN(C)S(=O)(=O)c1cc(C(=O)N2CCC(C)CC2)n(C)c1
  RP-LC retention time: 954 s

## Cc1ccc(CNC(=O)Cn2c(N(C)Cc3ccccc3)nc(C)cc2=O)cc1
  RP-LC retention time: 778 s

## CCOc1ccc(-c2[nH]ncc2CNS(=O)(=O)Cc2c(F)cccc2Cl)cc1
  RP-LC retention time: 882 s

## CC(=O)Nc1ccc(Cc2nc(-c3ccc4c(c3)oc(=O)n4C)no2)cc1
  RP-LC retention time: 729 s

## O=C(Cn1ccn2nc(-c3ccc(F)cc3)c(CO)c2c1=O)Nc1ccc(F)cc1F
  RP-LC retention time: 821 s

## Cc1onc(-c2c(Cl)cccc2Cl)c1C(=O)N1CCN(C)CC1
  RP-LC retention time: 609 s

## CC(C)n1c(N2CCCN(C(=O)c3cccnc3)CC2)cc(=O)n(C(C)C)c1=O
  RP-LC retention time: 668 s
